Experimental data reported in patent US4725577A, “Biologically active lysine containing octapeptides” (Administrators of the Tulane Educational Fund, priority 1986, dated 1988).
Non-standard residues stand in square brackets, D forms with d. Residues, ends and D or L forms follow the SMILES beside them.

Legend:
[1] = tested on: GH Release; assay: in vivo growth hormone bioassay in pentobarbital-anesthetized male rats, s.c. injection, plasma GH by RIA; set-up: species or system rat; conditions: for INHIBITION POTENCY GH in vivo: Table C, relative potency, SS-14 = 100, based on 4-point assays
Procedure: The in vivo growth hormone bioassay utilized is as follows:
Male Charles River CD rats (200-300 g.) with free access to food and water were anesthetized with sodium pentobarbital (60 mg.kg intraperitoneally). Thirty minutes later saline or octapeptide is injected subcutaneously and blood samples are drawn from the jugular vein 15 minutes after subcutaneous injection. The plasma is separated and assayed for growth hormone by RIA as described above. This in vivo bioassay is a modification of the methods used by Schally, et al., "Hypothalamic Peptide Hormones: Basic and Clinical Studies", "Hormonal Proteins and Peptides", C. H. Li, ed. Academic Press, N.Y. 7: 1-54, 1978; Meyers, C. A., Murphy, W. A., Redding T. W., Coy, D. H. and Schally, A. V., Proc. Natl. Acad. Sci., USA 77: 6171, 1980; Murphy, W. A., Meyers, C. A. and Coy, D. H., Endoc. 109: 491, (1981) as well as Veber et al., Pro. Natl. Acad. Sci., USA 75: 2636-2640 (1978). For some analogs, doses as low as 0.02 μg/100 g. or even 0.005 μg/ 100 g. are active. The potency of the octapeptides of this invention relative to somatostatin is illustrated in Tables A, B and C. Single dose assays are shown in Table A and 4 point assays at 2 dose levels in Tables B and C.

[2] = tested on: pentagastrin or desglugastrin-induced gastric acid output; assay: gastric acid secretion in dogs with gastric fistulae; type: in vivo
Procedure: In order to compare some of the biological actions of the octapeptides of the present invention and somatostatin on gastrointestinal secretions and on the release of some gastrointestinal homones in dogs, the following procedures are used:
Mongrel dogs weighing 15-20 kg. are prepared surgical with gastric (GF) and pancreatic fistulae (PF) as described by Konturek, et al., (1976) 225, 497 and Konturek, et al., Gastroenterology, (1976) 58, 1-6. Secretions from the GF and PF are collected continuously at 15 minute intervals. Hydrogen ion and pepsin concentrations in the […] are also measured in 15- or 30-minute outputs. (Konturek, et al., J. Physiol. Lond., 255, 497 (1976) and Konturek, et al., (1976) supra.). Basal secretion is first collected for two 15 minute periods, and then the secretory stimulant for gastric and/or pancreatic secretion is administered for 31/2 hours. When the secretory rate reaches a subtained plateau, the octapeptides or somatostatin are given in standard doses (2-μg/Kg/hr.). i.v. for a one hour period. […]
In tests on gastric stimulation, pentagastrin or desglugastrin (glutaroyl-Ala-Tyr-Gly-Trp-Leu-Asp-Phe-NH2) is infused i.v. in a constant dose (3 μg/kg/hr.), shown previously to elicit near maximal gastric acid secretion. Gastric secretion is measured and acid content determined by titration with 0.1N NaOH. […]

[3] = tested on: CPZ and Morphine stimulated GH secretion; assay: potency #3, time course of CPZ and Morphine stimulated GH secretion; type: in vivo; conditions: injected dose 2.0
Source text: *Based on time course of CPZ and Morphine stimulated GH secretion.

[4] = tested on: growth hormone release; assay: time course of growth hormone suppression in vivo in Nembutal-anesthetized male rats; set-up: species or system rat; conditions: 2 μg/100 g
Procedure: In order to determine the time course of the compounds of this invention, male rats are anesthetized with Nembutal and injected with saline or the test octapeptide as in the growth hormone potency assay above. Blood is collected from the jugular vein 15, 30, 45, 60, 90, 120 and 180 minutes post subcutaneous above. This time-course experiment for octapeptides on growth hormone release in vivo a significant suppression of plasma growth hormone. […] At the dose of 2 μg/100 g., the inhibitory effect of somatostatin on growth hormone release is no longer observed after 30 minutes (FIG. 1).

[5] = tested on: insulin release; assay: inhibition of insulin release in vivo in fasted male rats, i.v. injection, portal plasma insulin by RIA; set-up: species or system rat; conditions: Table C; relative potency, SS-14 = 100; based on 4-point assays
Procedure: The octapeptides of the present invention are also compared to synthetic somatostatin for their ability to inhibit the release of insulin and glucagon in vivo in male rats (CD strain, Charles River) weighing 250-300 g. The rats are kept in controlled temperature (24° C.) and light (0500-1900 h) conditions for 1 week before the assay. Rats are fasted 27-30 hours with free access to water then anesthetized with Nembutal (6 mg/100 g. intraperitoneally). After 30 minutes, saline or test peptide is injected into the jugular vein and blood is collected 5 minutes later from the hepatic portal vein then transferred into chilled tubes containing EDTA (2.5 mg/ml.) and Trasylol (500 K.I.U./ml.). Plasma is separated and stored at -20° C. until assayed for insulin and glucagon. Plasma insulin is determined by double antibody radioimmunoassay using a kit from Cambridge Medical Diagnostics.

[6] = tested on: well differentiated (WD), chemically induced ductal adenocarcinoma; conditions: given twice daily or as controlled-release microcapsules; pancreatic cancer model not given; cited from earlier work

For `CC(=O)N[C@H](Cc1ccccc1)C(=O)N[C@@H](CS)C(=O)N[C@@H](Cc1ccccc1)C(=O)N[C@H](Cc1c[nH]c2ccccc12)C(=O)N[C@@H](CCCCN)C(=O)N[C@H](C(=O)N[C@@H](CS)C(=O)N1CCC[C@H]1C(N)=O)[C@@H](C)O` [RC-76-2H, AcD-PheCysPheD-TrpLysThrCysProNH2] (Ac-[dF]CF[dW]KTCP-NH2), which “INHIBITION POTENCY GH in vivo” value [1] is on record?
Its value is 1070.

With `CC(=O)N[C@@H](Cc1ccccc1)C(=O)N[C@@H](CS)C(=O)N[C@@H](Cc1ccccc1)C(=O)N[C@H](Cc1c[nH]c2ccccc12)C(=O)N[C@@H](CCCCN)C(=O)N[C@H](C(=O)N[C@@H](CS)C(=O)N[C@H](C(N)=O)[C@@H](C)O)[C@@H](C)O` [RC-101-I-2H, AcPheCysPheD-TrpLysThrCysThrNH2] as the compound, how does the “INHIBITION POTENCY GH in vivo” value [1] read?
The value was 11320.

With `CC(=O)N[C@H](Cc1ccccc1)C(=O)N[C@@H](CS)C(=O)N[C@@H](Cc1ccccc1)C(=O)N[C@H](Cc1c[nH]c2ccccc12)C(=O)N[C@@H](CCCCN)C(=O)N[C@H](C(=O)N[C@@H](CS)C(=O)N[C@H](C(N)=O)[C@@H](C)O)[C@@H](C)O` [RC-101-II-2H, AcD-PheCysPheD-TrpLysThrCysThrNH2] as the compound, how does the “INHIBITION POTENCY GH in vivo” value [1] read?
Its value is 12900.

Which “INHIBITION POTENCY GH in vivo” value [1] does the source give for `CC(=O)N[C@@H](Cc1ccccc1)C(=O)N[C@H]1CSSC[C@@H](C(=O)N[C@H](C(N)=O)[C@@H](C)O)NC(=O)[C@H]([C@@H](C)O)NC(=O)[C@H](CCCCN)NC(=O)[C@@H](Cc2c[nH]c3ccccc23)NC(=O)[C@H](Cc2ccccc2)NC1=O` [RC-101-I] here?
Its value is 13560.

Which “INHIBITION POTENCY GH in vivo” value [1] does the source give for `CC(=O)N[C@H](Cc1ccccc1)C(=O)N[C@H]1CSSC[C@@H](C(=O)N[C@H](C(N)=O)[C@@H](C)O)NC(=O)[C@H](C(C)C)NC(=O)[C@H](CCCCN)NC(=O)[C@@H](Cc2c[nH]c3ccccc23)NC(=O)[C@H](Cc2ccc(O)cc2)NC1=O` [RC-161] here?
Its value is 5520.

Which “GH Level 15'” value ([1]; Potency assay #1 (89th experiment), 0.4 μg/100 g B.W., control 116 ± 10) does the source give for `C[C@H](N)C(=O)NCC(=O)N[C@H]1CSSC[C@@H](C(=O)O)NC(=O)[C@H](CO)NC(=O)[C@H]([C@@H](C)O)NC(=O)[C@H](Cc2ccccc2)NC(=O)[C@H]([C@@H](C)O)NC(=O)[C@H](CCCCN)NC(=O)[C@H](Cc2c[nH]c3ccccc23)NC(=O)[C@H](Cc2ccccc2)NC(=O)[C@H](Cc2ccccc2)NC(=O)[C@H](CC(N)=O)NC(=O)[C@H](CCCCN)NC1=O` [SS-14, Somatostatin] here?
The value was 88 ± 22 ng/mL.

What about the “GH Level 15'” value ([1]; Potency assay #1, 1.6 μg/100 g B.W., control 116 ± 10) of the same compound?
The value was 53 ± 10 ng/mL.

What about the “GH Level 15'” value ([1]; Potency assay #2 (108th experiment), 0.2 μg/100 g B.W., control 211 ± 56) of the same compound?
Its value is 171 ± 26 ng/mL.

What about the “GH Level 15'” value ([1]; Potency assay #2, 0.8 μg/100 g B.W., control 211 ± 56) of the same compound?
Its value is 91 ± 12 ng/mL.

What about the “GH-Level mean ± SEM” value ([1]; Table A single dose assay, 2.00 μg/100 g B.W. s.c., saline control 374 ± 69) of the same compound?
Its value is 50 ± 12 ng/mL.

And the “GH-Level mean ± SEM” value ([1]; Table A single dose assay, 2.00 μg/100 g B.W. s.c., saline control 754 ± 155)?
The value was 95 ± 31 ng/mL.

And the “GH-Level mean ± SEM” value ([1]; Table B four-point assay, 0.4 μg/100 g B.W., saline control 277 ± 166)?
Its value is 86 ± 16 ng/mL.

What about the “GH-Level mean ± SEM” value ([1]; Table B four-point assay, 1.6 μg/100 g B.W., saline control 277 ± 166) of the same compound?
The value was 47 ± 17 ng/mL.

What about the “INHIBITION POTENCY GH in vivo” value [1] of the same compound?
Its value is 100.

And the “duration of gastric acid inhibition after infusion” value ([2]; dogs with gastric fistulae)?
The value was “short-lived”.

And the “inhibition of gastric acid output from the gastric fistula” value ([2]; i.v. infusion for one hour, pentagastrin or desglugastrin stimulation)?
Its value is “strongly inhibit”.

What about the “GH-RH LEVEL” value [3] of the same compound?
Its value is 0.1032.

What about the “time after which inhibitory effect on growth hormone release is no longer observed” value [4] of the same compound?
The value was at most 30 min.

What about the “INHIBITION POTENCY INSULIN in vivo” value [5] of the same compound?
The value was 100.

For D-Trp-6-LH-RH, which “tumor weight and volume” value [6] is on record?
Its value is “significantly decreased”.
